From patent US9637469B2, “Pyridine derivative” (Teijin Pharma Limited, priority 2012, dated 2017)
pIC50: −log10 of the molar value.

Target: T1, human URAT1 (Homo sapiens, UniProt Q96S37)
T1 construct: Full-length cDNA of human URAT1 (hURAT1)
T1 sequence (Q96S37 1-553): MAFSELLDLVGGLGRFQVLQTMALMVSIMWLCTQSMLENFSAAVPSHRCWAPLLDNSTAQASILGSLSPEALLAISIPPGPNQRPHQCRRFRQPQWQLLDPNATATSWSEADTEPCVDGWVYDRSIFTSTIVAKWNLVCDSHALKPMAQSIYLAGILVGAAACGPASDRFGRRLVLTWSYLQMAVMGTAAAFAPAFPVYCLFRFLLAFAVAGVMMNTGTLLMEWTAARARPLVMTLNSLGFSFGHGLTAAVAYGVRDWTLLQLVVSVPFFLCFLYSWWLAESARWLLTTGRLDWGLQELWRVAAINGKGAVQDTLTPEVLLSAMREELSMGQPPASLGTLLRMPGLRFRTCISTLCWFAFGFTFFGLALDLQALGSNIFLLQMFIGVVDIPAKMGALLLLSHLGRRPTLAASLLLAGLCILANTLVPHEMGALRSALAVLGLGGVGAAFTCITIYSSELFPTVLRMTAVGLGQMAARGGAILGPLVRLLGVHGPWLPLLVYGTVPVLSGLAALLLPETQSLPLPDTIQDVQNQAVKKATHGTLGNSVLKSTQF
Assay: Test for inhibition of uric acid transport using human URAT1-expressing cells;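 also: three stars up to 0.2 µM two stars 0.2-2 µM one star 2-20 µM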
Format: cell-based
Conditions: HEK 293 cells expressing human URAT1, 14C-labeled uric acid 25 μM, uptake 37° C. for 5 min; for pIC50: read-out: Inhibitory Activity (IC50 of uric acid transport inhibition)
In short: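 IC50 values reflect inhibition of ¹⁴C-uric acid uptake (25 μM final, 5 min, 37 °C) by compound. Cells were HEK293 stably expressing full-length human URAT1, preincubated in Na-gluconate-substituted HBSS. Radioactivity in lysates was expressed relative to DMSO control as 100%.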

Inhibitory Activity (IC50 of uric acid transport inhibition) | pIC50 | Structure (SMILES)
* * * |  | Cc1ccc(Cn2c(C(=O)O)ccc2-c2cccnc2)c2ccccc12 [Compound B2, 1-((4-methylnaphthalen-1-yl)methyl)-2-(pyridin-3-yl)-1H-pyrrole-5-carboxylic acid]
* * * |  | O=C(O)c1ccc(-c2cccnc2)n1Cc1csc2cccc(Br)c12 [Compound B3, 1-((4-bromobenzo[b]thiophen-3-yl)methyl)-2-(pyridin-3-yl)-1H-pyrrole-5-carboxylic acid]
* * |  | Cc1ccc2ccccc2c1Cn1c(C(=O)O)ccc1-c1cccnc1 [Compound B4, 1-((2-methylnaphthalen-1-yl)methyl)-2-(pyridin-3-yl)-1H-pyrrole-5-carboxylic acid]
* * * |  | O=C(O)c1ccc(-c2cccnc2)n1Cc1cccc2cccc(Br)c12 [Compound B6, 1-((8-bromonaphthalen-1-yl)methyl)-2-(pyridin-3-yl)-1H-pyrrole-5-carboxylic acid]
* * * |  | Cc1cccc2scc(Cn3c(C(=O)O)ccc3-c3cccnc3)c12 [Compound B7, 1-((4-methylbenzo[b]thiophen-3-yl)methyl)-2-(pyridin-3-yl)-1H-pyrrole-5-carboxylic acid]
* * * |  | O=C(O)c1ccc(-c2cccnc2)n1Cc1csc2ccccc12 [Compound B8, 1-(benzo[b]thiophen-3-ylmethyl)-2-(pyridin-3-yl)-1H-pyrrole-5-carboxylic acid]
* * * |  | O=C(O)c1ccc(-c2cccnc2)n1Cc1csc2cccc(C(F)(F)F)c12 [Compound B9, 2-(pyridin-3-yl)-1-((4-(trifluoromethyl)benzo[b]thiophen-3-yl)methyl)-1H-pyrrole-5-carboxylic acid]
* * * |  | O=C(O)c1ccc(-c2cccnc2)n1Cc1csc2cccc(Cl)c12 [Compound B10, 1-((4-chlorobenzo[b]thiophen-3-yl)methyl)-2-(pyridin-3-yl)-1H-pyrrole-5-carboxylic acid]
* * * |  | Cc1ccc(C)c(Cn2c(C(=O)O)ccc2-c2cccnc2)c1 [Compound B12, 1-(2,5-dimethylbenzyl)-2-(pyridin-3-yl)-1H-pyrrole-5-carboxylic acid]
* * * |  | Cc1cncc(-c2ccc(C(=O)O)n2Cc2cc(Cl)ccc2Cl)c1 [Compound B13, 1-(2,5-dichlorobenzyl)-2-(5-methylpyridin-3-yl)-1H-pyrrole-5-carboxylic acid]
* * * |  | O=C(O)c1ccc(-c2cncc(F)c2)n1Cc1cc(Cl)ccc1Cl [Compound B14, 1-(2,5-dichlorobenzyl)-2-(5-fluoropyridin-3-yl)-1H-pyrrole-5-carboxylic acid]

Second part, the compound before the results:

Structure (SMILES) | Inhibitory Activity (IC50 of uric acid transport inhibition) | pIC50
CC(C)(Sc1cnc(-c2cncc(Cl)c2)n1Cc1cc(Cl)ccc1Cl)C(=O)O [Compound A262, 2-((2-(5-chloropyridin-3-yl)-1-(2,5-dichlorobenzyl)-1H-imidazol-5-yl)thio)-2-methylpropanoic acid] | * * | 
O=C(O)C1(Sc2cnc(-c3cncc(Cl)c3)n2Cc2cc(Cl)ccc2Cl)CCC1 [Compound A263, 1-((2-(5-chloropyridin-3-yl)-1-(2,5-dichlorobenzyl)-1H-imidazol-5-yl)thio)cyclobutanecarboxylic acid] | * * | 
CC(C)(Sc1ncc(-c2cccnc2)n1Cc1cc(Cl)ccc1Cl)C(=O)O [Compound A264] |  | 4.70 to 5.70
CC(C)(Sc1ncc(-c2cncc(F)c2)n1Cc1cc(Cl)ccc1Cl)C(=O)O [Compound A265] |  | 4.70 to 5.70
CC(C)(Sc1ncc(-c2cncc(Cl)c2)n1Cc1cc(Cl)ccc1Cl)C(=O)O [Compound A266, 2-((5-(5-chloropyridin-3-yl)-1-(2,5-dichlorobenzyl)-1H-imidazol-2-yl)thio)-2-methylpropanoic acid] | * * | 
